These results are taken from publication PMC3355305, “Localized Dimerization and Nucleoid Binding Drive Gradient Formation by the Bacterial Cell Division Inhibitor MipZ” (Molecular Cell, 2012).

Positions count from the first letter of the chain named. In names and notes the source's numbering stands.

Series [1] has as its system MipZ. The experiment in a line: Transient kinetic (stopped-flow) analysis of mant nucleotide binding to wild-type MipZ. More on the design: species or system Caulobacter crescentus. Particulars: for kon: 30°C, buffer P; for Kd: calculated KD = koff/kon; for koff: displacement by excess unlabeled nucleotide. From the text: (§1) Once released from the dimeric complex, MipZ monomers must undergo nucleotide exchange to enter the next reaction cycle (Figure 2A). To clarify the requirements for the exchange reaction, we studied the nucleotide binding kinetics of MipZ by monitoring its interaction with methylanthraniloyl (mant)-labeled ADP and ATP analogs (Figure S3). Since the mant group blocks dimer formation, our measurements specifically focused on the initial nucleotide-binding step without interference from subsequent reactions.
(§2) Figure S3. Steady-state and transient kinetic analysis of nucleotide binding to MipZ, Related to Table 2.
(§3) (A) Fluorescence emission spectra of mant-ATP. MipZ (1 µM) and/or mant-ATP (60 µM) were mixed in buffer BC containing no (+ Mg2+) or 10 mM (- Mg2+) EDTA. Emission spectra were recorded in a PC1 photon-counting spectrofluorimeter (ISS) using fluorescence resonance energy transfer (FRET) and an excitation wavelength of 290 nm.
(§4) (B) Association of MipZ with mant nucleotides.
(§5) (data not shown), necessitating the use of ADP and ATP analogues that carried a fluorescent methylanthraniloyl (mant) group attached to the 2'- or 3'-hydroxy group of the ribose moiety. Due to the bulkiness of the mant group and a critical role of these hydroxy groups in MipZ dimerization, the modified nucleotides are predicted to block dimer formation, consistent with their failure to be hydrolyzed by MipZ or mediate MipZ self-association in the SPR assay (data not shown). This circumstance allowed us to focus the measurements on the initial nucleotide binding step without interference from subsequent reactions.
(§6) Interaction of the mant group with the protein surface led to a marked increase in fluorescence (panel A). Consistent with the easy accessibility of the nucleotide-binding site and the lack of major conformational changes, the transients recorded after rapid mixing of MipZ with mant nucleotides could be fitted to single-exponential equations, indicating single-step binding reactions.
(§7) Shown is a typical curve representing the change in mant fluorescence upon binding of mant-ATP (30 µM) to MipZ (1 µM).
(§8) Fitting of the data yielded a pseudo-first order rate constant (kobs) of 4.7 s-1.
(§9) (C) Determination of the second-order association rate constants (kon). The pseudo-first order rate constants for the association of […]
(§10) determining the second-order rate constant of the association reaction. Shown is a representative graph in which the kobs values measured for mant-ATP were plotted against the corresponding mant-ATP concentrations. Fitting of the data to the linear function kobs=kon[mant-ATP]+koff yielded a value of 6.8 x 104 M-1s-1 for kon.
(§11) (D) Dissociation of mant nucleotides from MipZ. In order to determine the dissociation rate constants (koff), we monitored the displacement of mant-labeled nucleotides from MipZ by an excess of unlabeled nucleotide. All transients obtained could be fitted to single-exponential functions. Shown is a typical curve representing the change in mant fluorescence upon dissociation of mant-ATP (30 µM) from MipZ (1 µM) in the presence of 2 mM ATP. […]
(§12) […]
(§13) (Murshudov et al. 1997) for apo-MipZ in crystal form 2. Transient kinetic analysis The structure of apo-MipZ in crystal form 1 was solved Transient kinetic experiments were conducted at 30°C by multiple-wavelength anomalous diffraction (MAD), in a Hi-Tech Scientific SF-61MX stopped-flow spectro- […]

For series [2], the system named is MipZ-D42A. Kind of series: Transient kinetic analysis of mant nucleotide binding to MipZ D42A. Particulars: for Kd: calculated KD = koff/kon. More on the design: species or system Caulobacter crescentus.
Description: as §1, §2, §3, §4, §5, §6, §7, §8, §9, §10, §11, §12, §13

Another series deals with MipZ G14V. Kind of series: Transient kinetic analysis of mant nucleotide binding to MipZ G14V. More on the design: species or system Caulobacter crescentus. Particulars: for Kd: calculated KD = koff/kon.
Description: as §1, §2, §3, §4, §5, §6, §7, §8, §9, §10, §11, §12, §13

The next series deals with MipZ K13A. The experiment in a line: Transient kinetic analysis of mant nucleotide binding to MipZ K13A. More on the design: species or system Caulobacter crescentus. Particulars: for Kd: calculated KD = koff/kon.
Description: as §1, §2, §3, §4, §5, §6, §7, §8, §9, §10, §11, §12, §13

The test system of another series is MipZ-K18Q. Kind of series: Transient kinetic analysis of mant nucleotide binding to MipZ K18Q. More on the design: species or system Caulobacter crescentus.
Description: as §1, §2, §3
(B) Association of MipZ with mant nucleotides. […]
as §6
Shown is a typical curve representing the change in mant fluorescence upon binding of mant-ATP (30 µM) to MipZ (1 µM). […]
determining the second-order rate constant of the association reaction. Shown is a representative graph in which the kobs values measured for mant-ATP were plotted against the corresponding mant-ATP concentrations. […]
(D) Dissociation of mant nucleotides from MipZ. In order to determine the dissociation rate constants (koff), we monitored the displacement of mant-labeled nucleotides from MipZ by an excess of unlabeled nucleotide. […] Shown is a typical curve representing the change in mant fluorescence upon dissociation of mant-ATP (30 µM) from MipZ (1 µM) in the presence of 2 mM ATP. […]

Series [3] deals with T1, MipZ-D42A (Caulobacter crescentus, UniProt Q9A6C9 1-278, D42A).
T1 sequence: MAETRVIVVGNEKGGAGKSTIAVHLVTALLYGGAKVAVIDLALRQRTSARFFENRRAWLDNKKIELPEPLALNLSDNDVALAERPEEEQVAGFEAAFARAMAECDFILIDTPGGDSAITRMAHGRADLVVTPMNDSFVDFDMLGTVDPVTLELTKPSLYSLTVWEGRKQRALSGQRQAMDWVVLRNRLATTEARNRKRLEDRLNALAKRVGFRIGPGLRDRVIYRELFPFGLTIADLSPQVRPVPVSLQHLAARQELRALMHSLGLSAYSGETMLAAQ
The experiment in a line: SPR; ATP; SPR: buffer P2 or buffer BC (Mg2+-containing) with 2 mM nucleotide, composition not in material; EMSA: 1.25 mM nucleotide, 270 nM-5.6 uM protein, room temperature. Particulars: protein: recombinant; chain copies: 2; label: biotin; blunt. (In general: In SPR one partner is held on a chip, and binding of the other changes the refractive index at the surface.)

Series [4] has as its target T2, MipZ (Caulobacter crescentus, UniProt Q9A6C9 1-278).
T2 sequence: T1 sequence with A42D
Described as above. Particulars: protein: recombinant; chain copies: 2; label: biotin; blunt.

Series [5] deals with the molecule itself. The experiment in a line: SPR; 1 mM ATPγS (printed 0.18 min-1).
Series [6] concerns the molecule itself. The experiment in a line: SPR; 1 mM ATP (printed 0.83 min-1).
Series [7] concerns the molecule itself. Kind of series: SPR; ATP; printed as 0.83 min-1.
Series [8] deals with the molecule itself. The experiment in a line: SPR; ATP; printed as 0.067 min-1.
Series [9] concerns the molecule itself. Kind of series: SPR; 1 mM ATP (printed 0.067 min-1).

One may read the kon as a measure of how fast the partners come together. Usually Kd stands for the concentration at which binding is half-saturated. One may read the koff as the rate constant with which the complex falls apart. The low end stands for slow dissociation, the high end for fast dissociation.

As for `CNc1ccccc1C(=O)O[C@H]1[C@@H](O)[C@H](n2cnc3c(N)ncnc32)O[C@@H]1COP(=O)(O)OP(=O)(O)O` [mant-ADP], the “average lifetime (τ = 1/koff) of the MipZ⋅nucleotide complex” value in the series on MipZ [1] (WT MipZ) is reported as “about 0.3 s”. The kon with MipZ [1] (WT MipZ) came out at 118000 M⁻¹ s⁻¹; in the series with MipZ-D42A [2] it was 55000 M⁻¹ s⁻¹; in the series on MipZ G14V, 205000 M⁻¹ s⁻¹; with MipZ K13A it was 86000 M⁻¹ s⁻¹. Moreover, the Kd on MipZ [1] (WT MipZ) was 26 µM; on MipZ-D42A [2] it was 69 µM; at MipZ G14V, 4.5 µM; at MipZ K13A, 41 µM. For the same molecule, the koff with MipZ [1] (WT MipZ) was found to be 3.1 s⁻¹; in the series on MipZ-D42A [2], 3.8 s⁻¹; in the series on MipZ G14V, 0.9 s⁻¹; with MipZ K13A, 3.5 s⁻¹.
On to `CNc1ccccc1C(=O)O[C@H]1[C@@H](O)[C@H](n2cnc3c(N)ncnc32)O[C@@H]1COP(=O)(O)OP(=O)(O)OP(=O)(O)O` [mant-ATP], for which the kon turned out to be 68000 M⁻¹ s⁻¹ in the series on MipZ [1] (WT MipZ); 78000 M⁻¹ s⁻¹ with MipZ-D42A [2]; 157000 M⁻¹ s⁻¹ with MipZ G14V; 56000 M⁻¹ s⁻¹ in the series on MipZ K13A; 62000 M⁻¹ s⁻¹ with MipZ-K18Q. Besides, the Kd at MipZ [1] (WT MipZ) is 31 µM; at MipZ-D42A [2], 58 µM; on MipZ G14V, 1.3 µM; on MipZ K13A, 38 µM; at MipZ-K18Q (calculated KD = koff/kon), 121 µM. Also, the koff with MipZ [1] (WT MipZ) turned out to be 2.1 s⁻¹; in the series with MipZ-D42A [2], 4.5 s⁻¹; with MipZ G14V, 0.2 s⁻¹; in the series with MipZ K13A, 2.1 s⁻¹; in the series on MipZ-K18Q, 7.5 s⁻¹. Moreover, the “pseudo-first order rate constant (kobs)” value with MipZ [1] (mant-ATP 30 µM, MipZ 1 µM) was 4.7 s⁻¹.

B1: parSmt (dsDNA)
DNA 1: GAGGCTTGTTTGAGCTCAAACATCGG
DNA 2: CCGATGTTTGAGCTCAAACAAGCCTC
For B1, the binding result in the series with MipZ-D42A [3] and with MipZ [4] was “binds” throughout.

B2: ran1 (dsDNA)
DNA 1: GAGGCAGACTAGATCTTCTAGTTCGG
DNA 2: CCGAACTAGAAGATCTAGTCTGCCTC
For the molecule B2, the binding result with MipZ-D42A [3] and with MipZ [4] was “binds” throughout.

B3: parSWT (dsDNA)
DNA 1: GAGGCTTGTTTCACGTGAAACATCGG
DNA 2: CCGATGTTTCACGTGAAACAAGCCTC
As for B3, the binding result with MipZ-D42A [3] and in the series with MipZ [4] was “binds” in each case.

B4: MipZ (wild type), hexahistidine-tagged (natural protein)
chain: T1 sequence with A42D
Turning to B4, the off-rate (koff) in [5] amounted to 0.003 s⁻¹; in series [6], 0.0138 s⁻¹; in [7], 0.0138 s⁻¹.

B5: MipZ-D42A, hexahistidine-tagged (natural protein)
chain: T1 sequence
Consider B5, for which the koff in series [8] and in series [9] was 0.00112 s⁻¹ throughout.
